From US8962687B2, “Method of treating liver disorders” (priority 2012, dated 2015)
“Also recorded” adds a separate entry of the source.

Tests used:
Format in all cases: in vivo, C57BL/6 mice
[1] = system: MCP-1 mRNA; assay: Quantitative RT-PCR of liver, MCP-1; conditions: relative, normalized to 36B4, 30 mg/kg oral once daily, 6-9 wks (MN-001-middle group), mean±SD
Description: (§1) Total RNA was extracted from liver samples using RNAiso (Takara Bio, Japan) according to the manufacturer's instructions. One μg of RNA was reverse-transcribed using a reaction mixture containing 4.4 mM MgCl2 (Roche, Switzerland), 40 U RNase inhibitor (Toyobo, Japan), 0.5 mM dNTP (Promega, USA), 6.28 μM random hexamer (Promega), 5× first strand buffer (Promega), 10 mM dithiothreitol (Invitrogen) and 200 U MMLV-RT (Invitrogen) in a final volume of 20 μL. The reaction was carried out for 1 hour at 37° C., followed by 5 minutes at 99° C. Real-time PCR was performed using real-time PCR DICE and SYBR premix Taq (Takara Bio). To calculate the relative mRNA expression level, the expression of each gene was normalized to that of reference gene 36B4 (gene symbol: Rp1p0). Information of PCR-primer sets and the plate layout was described in Table 1.

[2] = system: TIMP-1 mRNA; assay: Quantitative RT-PCR of liver, TIMP-1; conditions: relative, mean±SD
Description: as §1

[3] = system: STAM mice; assay: Liver weight and liver-to-body weight ratio in STAM model; conditions: mean±SD
Description: NASH was induced in 50 male mice by a single subcutaneous injection of 200 μg streptozotocin (STZ, Sigma-Aldrich, USA) solution 2 days after birth and feeding with high fat diet (HFD, 57 kcal % fat, cat#: HFD32, CLEA Japan, Japan) after 4 weeks of age. Ten male littermates, fed with normal diet and without STZ treatment, were used for the normal group. Vehicle, MN-001, and Telmisartan were administered by oral route in a volume of 10 mL/kg. MN-001 was administered at doses of 10, 30, and 100 mg/kg once daily. Telmisartan was administered at dose of 10 mg/kg once daily.

[4] = system: TNF-α mRNA; assay: Quantitative RT-PCR of liver, TNF-α; conditions: relative, mean±SD
Description: as §1

[5] = system: STAM mice; assay: F4/80 immunostaining, inflammation area in STAM model; conditions: mean±SD
Description: (§2) For immunohistochemistry, sections were cut from frozen left lateral liver tissues embedded in Tissue-Tek O.C.T. compound and fixed in acetone. Endogenous peroxidase activity was blocked using 0.03% H2O2 for 5 minutes, followed by incubation with Block Ace (Dainippon Sumitomo Pharma, Japan) for 10 minutes. The sections were incubated with a 200-fold dilution of anti-α-SMA (Epitomics, USA) or anti-F4/80 antibody (BMA Biomedicals, Switzerland) 1 hour at room temperature. […] For quantitative analysis of fibrosis area, inflammation area, and semi-quantification of α-SMA, bright field images of Sirius red-stained, F4/80 and α-SMA-immunostained sections were captured around the central vein using a digital camera (DFC280; Leica, Germany) at 200-fold magnification, and the positive areas in 5 fields/section were measured using ImageJ software (National Institute of Health, USA).

[6] = system: STAM mice; assay: HE staining and NAFLD Activity Score (NAS) in STAM model of NASH; set-up: key to NAS (mean ± SD): NAFLD Activity Score per Kleiner et al. 2005 criteria; conditions: for Steatosis score 1, number of mice: score 1 = 5-33%; for Lobular inflammation score 1, number of mice: score 1 = <2 foci/200x; for Hepatocyte ballooning score 1, number of mice: score 1 = Few balloon cells; for Lobular inflammation score 2, number of mice: score 2 = 2-4 foci/200x; for Hepatocyte ballooning score 2, number of mice: score 2 = Many cells/prominent ballooning; for Hepatocyte ballooning score 0, number of mice: score 0 = None
Description: STAM™ is a model for non-alcoholic steatohepatitis (NASH), symtoms thereof, and related liver disorders, created by the combination of chemical and dietary interventions in C57BL/6 mice. […] For HE staining, sections were cut from paraffin blocks of left lateral liver tissue prefixed in Bouin's solution and stained with Lillie-Mayer's Hematoxylin (Muto Pure Chemicals, Japan) and eosin solution (Wako Pure Chemical Industries). NAS was calculated according to the criteria of Kleiner (Kleiner D E. et al., Hepatology, 2005; 41:1313). To visualize collagen deposition, Bouin's fixed left lateral liver sections were stained using picro-Sirius red solution (Waldeck, Germany).

[7] = system: STAM mice; assay: Alpha-SMA immunostaining in STAM model; conditions: mean±SD
Description: as §2

[8] = system: STAM mice; assay: Liver hydroxyproline content in STAM model; conditions: mean±SD
Description: To quantify liver hydroxyproline content, frozen liver samples (32-40 mg) were processed by an alkaline-acid hydrolysis method as follows. Liver samples were defatted with 100% acetone, dried in the air, dissolved in 2N NaOH at 65° C., and autoclaved at 121° C. for 20 minutes. The lysed samples (400 μL) were acid-hydrolyzed with 400 μL of 6N HCl at 121° C. for 20 minutes, and neutralized with 400 μL of 4N NaOH containing 10 mg/mL activated carbon. AC buffer (2.2M acetic acid/0.48M citric acid, 400 μL) was added to the samples, followed by centrifugation to collect the supernatant. A standard curve of hydroxyproline was constructed with serial dilutions of trans-4-hydroxy-L-proline (Sigma-Aldrich) starting at 16 μg/mL. The prepared samples and standards (each 400 μL) were mixed with 400 μL chloramine T solution (Wako Pure Chemical Industries) and incubated for 25 minutes at room temperature. […] After samples were cooled on ice and centrifuged to remove precipitates, the optical density of each supernatant was measured at 560 nm. The concentrations of hydroxyproline were calculated from the hydroxyproline standard curve. Protein concentrations of liver samples were determined using a BCA protein assay kit (Thermo Fisher Scientific, USA) and used to normalize the calculated hydroxyproline values. Liver hydroxyproline levels were expressed as μg per mg protein.

[9] = system: CCR2 mRNA; assay: Quantitative RT-PCR of liver, CCR2; conditions: relative, mean±SD
Description: as §1

[10] = system: Alpha-SMA mRNA; assay: Quantitative RT-PCR of liver, Alpha-SMA; conditions: relative, mean±SD
Description: as §1

[11] = system: STAM mice; assay: Whole blood glucose and plasma ALT/AST in STAM model; conditions: mean±SD; for Whole blood glucose: non-fasting
Description: Non-fasting blood glucose was measured in whole blood using […], Japan). For plasma biochemistry, blood was collected in polypropylene tubes with anticoagulant (Novo-Heparin, Mochida Pharmaceutical, Japan) and centrifuged at 1,000×g for 15 minutes at 4° C. The supernatant was collected and stored at -80° until use. Plasma ALT and AST levels were measured by FUJI DRI-CHEM 7000 (Fujifilm, Japan).

[12] = system: STAM mice; assay: Sirius red staining, fibrosis area in STAM model; conditions: for fibrosis area (Sirius red-positive area): mean±SD
Description: For HE staining, sections were cut from paraffin blocks of left lateral liver tissue prefixed in Bouin's solution and stained with Lillie-Mayer's Hematoxylin (Muto Pure Chemicals, Japan) and eosin solution (Wako Pure Chemical Industries). NAS was calculated according to the criteria of Kleiner (Kleiner D E. et al., Hepatology, 2005; 41:1313). To visualize collagen deposition, Bouin's fixed left lateral liver sections were stained using picro-Sirius red solution (Waldeck, Germany). For quantitative analysis of fibrosis area, inflammation area, and semi-quantification of α-SMA, bright field images of Sirius red-stained, F4/80 and α-SMA-immunostained sections were captured around the central vein using a digital camera (DFC280; Leica, Germany) at 200-fold magnification, and the positive areas in 5 fields/section were measured using ImageJ software (National Institute of Health, USA).

[13] = normalized to 36B4, 100 mg/kg oral once daily, 6-9 wks (MN-001-high group)
[14] = 10 mg/kg oral once daily, 6-9 wks of age (MN-001-low; Telmisartan groups)
[15] = 100 mg/kg oral once daily, 6-9 wks of age (MN-001-high group)
[16] = normalized to 36B4, 10 mg/kg oral once daily, 6-9 wks (MN-001-low; Telmisartan groups)
[17] = normalized to 36B4, 30 mg/kg oral once daily, 6-9 wks (MN-001-middle group)
[18] = 30 mg/kg oral once daily, 6-9 wks of age (MN-001-middle group)
[19] = 10 mg/kg oral once daily, 6-9 wks, n 10
[20] = 30 mg/kg oral once daily, 6-9 wks, n 10
[21] = 100 mg/kg oral once daily, 6-9 wks, n 10

Compound: CCCc1c(SCCCOc2ccc(C(C)=O)c(OCCCC(=O)O)c2CCC)ccc(C(C)=O)c1O [MN-001]
- MCP-1 mRNA expression levels [1]: 4.00±7.78
- TIMP-1 mRNA expression levels [2, 13]: 10.6±5.83
- Mean liver weight [3, 14]: 1567 ± 165 mg
- Mean liver weight [3, 15]: 1480 ± 145 mg
- TNF-α mRNA expression levels [4, 16]: 3.42±2.53
- TNF-α mRNA expression levels [4, 17]: 7.97±9.30
- TNF-α mRNA expression levels [4, 13]: 9.74±3.34
- inflammation area (F4/80-positive area) [5, 18]: 6.33±0.84%
- inflammation area (F4/80-positive area) [5, 15]: 6.31±0.76%
- NAS (mean ± SD) [6, 14]: 4.7±0.5
- hepatocellular ballooning, HE-stained liver sections, compared with Vehicle [6, 14]: moderate decrease
- Steatosis score 1, number of mice [6, 19]: 10
- Lobular inflammation score 1, number of mice [6, 19]: 1
- Hepatocyte ballooning score 1, number of mice [6, 19]: 2
- Lobular inflammation score 2, number of mice [6, 19]: 9
- Hepatocyte ballooning score 2, number of mice [6, 19]: 8
- NAS (mean ± SD) [6, 18]: 4.7±0.5
- hepatocellular ballooning, HE-stained liver sections, compared with Vehicle [6, 18]: moderate decrease
- Steatosis score 1, number of mice [6, 20]: 10
- Hepatocyte ballooning score 1, number of mice [6, 20]: 3
- Lobular inflammation score 2, number of mice [6, 20]: 10
- Hepatocyte ballooning score 2, number of mice [6, 20]: 7
- hepatocellular ballooning, HE-stained liver sections / ballooning score, compared with Vehicle [6, 15]: significantly reduced; also recorded: marked improvements
- inflammatory cell infiltration, HE-stained liver sections, compared with Vehicle [6, 15]: moderate improvements
- Lobular inflammation score 0, number of mice ([6]; 100 mg/kg oral once daily, 6-9 wks, score 0 = No foci, n 10): 1
- Hepatocyte ballooning score 0, number of mice [6, 21]: 2
- Steatosis score 1, number of mice [6, 21]: 10
- Lobular inflammation score 1, number of mice [6, 21]: 4
- Hepatocyte ballooning score 1, number of mice [6, 21]: 7
- Lobular inflammation score 2, number of mice [6, 21]: 5
- Hepatocyte ballooning score 2, number of mice [6, 21]: 1
- α-SMA-positive area [7, 18]: 0.11±0.04%
- Liver hydroxyproline content [8, 14]: 0.78±0.34 μg/mg protein
- Liver hydroxyproline content [8, 18]: 0.63±0.12 μg/mg protein
- CCR2 mRNA expression levels [9, 13]: 3.86±1.43
- Alpha-SMA mRNA expression levels [10, 16]: 36.8±111
- Alpha-SMA mRNA expression levels [10, 17]: 3.13±2.52
- Alpha-SMA mRNA expression levels [10, 13]: 5.78±3.45
- Plasma ALT [11, 14]: 71±60 U/L
- Plasma ALT [11, 18]: 48±23 U/L
- Plasma ALT [11, 15]: 54±11 U/L
- Whole blood glucose [11, 14]: 614 ± 98 mg/dL
- Whole blood glucose [11, 18]: 609 ± 78 mg/dL
- Whole blood glucose [11, 15]: 671 ± 124 mg/dL
- fibrosis area (Sirius red-positive area) [12, 14]: 0.76±0.19%
- fibrosis area (Sirius red-positive area) [12, 18]: 0.76±0.16%
- fibrosis area (Sirius red-positive area) [12, 15]: 0.69±0.18%
- fibrosis area compared with Vehicle ([12]; MN-001 treatment groups together (10, 30, 100 mg/kg oral once daily, 6-9 wks), dose dependent manner): significantly reduced; also recorded: significantly decreased

Compound: CCCc1nc2c(C)cc(-c3nc4ccccc4n3C)cc2n1Cc1ccc(-c2ccccc2C(=O)O)cc1 [Telmisartan, reference compound]
- TIMP-1 mRNA expression levels [2, 16]: 7.82±2.62
- TNF-α mRNA expression levels [4, 16]: 8.35±2.84
- hepatocellular ballooning, HE-stained liver sections, compared with Vehicle [6, 14]: marked improvements
- inflammatory cell infiltration, HE-stained liver sections, compared with Vehicle ([6]; 10 mg/kg oral once daily, 6-9 wks of age (Telmisartan group)): marked improvements
- Steatosis score 0, number of mice ([6]; 10 mg/kg oral once daily, 6-9 wks, score 0 = <5%, n 10): 1
- Hepatocyte ballooning score 0, number of mice [6, 19]: 4
- Steatosis score 1, number of mice [6, 19]: 9
- Lobular inflammation score 1, number of mice [6, 19]: 10
- Hepatocyte ballooning score 1, number of mice [6, 19]: 6
- α-SMA-positive area [7, 14]: 0.12±0.05%
- CCR2 mRNA expression levels [9, 16]: 3.21±0.85
- Plasma AST [11, 14]: 190±28 U/L
